Laboratory results taken from PMC11672540 (2024).
Values belong to the molecule of their own block, whether it stands above or below them.

How the values were obtained:
Test in all cases: ITC
[1] = tested on: ML4 (DNA, aptamer, none) TTCAAATCTTGGTACGTTCTGCCTTTTCTTATTTTGCTTTGGGTTACCTAGTCTAGATTTGAA; details: 0.5x PBS (about 68 mM NaCl, 1.4 mM KCl), 5 mM MgCl2
[2] = tested on: ML12 (DNA, aptamer, none) TTCAAATCTGCGGCGACTAATTCTTAGTGGTGGTTGCAATGCGCTGGGATGAGTCTAGATTTGAA; details: 0.5x PBS (about 68 mM NaCl, 1.4 mM KCl), 5 mM MgCl2, 23 °C
[3] = tested on: ML13 (DNA, aptamer, none) TTCAAATCTGAGCAGCCTAGTTACTGACGGGTTTATAGTACTCGCACTGAGTCTAGATTTGAA; details: 0.5x PBS (about 68 mM NaCl, 1.4 mM KCl), 5 mM MgCl2, 23 °C
[4] = tested on: MT2-R1 (DNA, aptamer, none) GGGACGACGCTAGGGGATCTTTTGGGGTTTGTATGGGCGTCGTCCC; details: 137 mM NaCl, 2.7 mM KCl, 1 mM MgCl2; 1x PBS, 23 °C
[5] = tested on: M13 (DNA, aptamer, none) GGGACGACGGCACGAGGTTATTCGTTGGTTGCACTGCGCTGGGAGGAAGTCGTCCC; details: 137 mM NaCl, 2.7 mM KCl, 1 mM MgCl2; 1x PBS, 23 °C; lowest KD of trial 3
[6] = tested on: ML4-mut4 (DNA, aptamer, none) TTCAAATCTTGGTACGTTCTGCCTTTACTTATTTTGCTTTGGGTTACCTAGTCTAGATTTGAA; details: 0.5x PBS (about 68 mM NaCl, 1.4 mM KCl), 5 mM MgCl2, 0.005% Triton X-100, 23 °C
[7] = tested on: ML3-mut5 (DNA, aptamer, none) TTCAAATCTTATGTACGTTCTATCGCATGGATGGGATTTTTGGTTACCTAGTCTAGATTTGAA; details: 0.5x PBS (about 68 mM NaCl, 1.4 mM KCl), 5 mM MgCl2, 0.005% Triton X-100, 23 °C, table says NA, 2000 titrant, 50 aptamer
[8] = tested on: ML4-mut5 (DNA, aptamer, none) TTCAAATCTTGGTACGTTCTGCCTTTTCTTATATTGCTTTGGGTTACCTAGTCTAGATTTGAA; details: 0.5x PBS (about 68 mM NaCl, 1.4 mM KCl), 5 mM MgCl2, 0.005% Triton X-100, 23 °C
[9] = tested on: ML3-mut3 (DNA, aptamer, none) TTCAAATCTTATGTACGTTCTATCGCATGGATGTGATTTTGGGTTACCTAGTCTAGATTTGAA; details: 0.5x PBS (about 68 mM NaCl, 1.4 mM KCl), 5 mM MgCl2, 0.005% Triton X-100, 23 °C
[10] = tested on: ML4-mut3 (DNA, aptamer, none) TTCAAATCTTGGTACGTTCTGCCTATTCTTATTTTGCTTTGGGTTACCTAGTCTAGATTTGAA; details: 0.5x PBS (about 68 mM NaCl, 1.4 mM KCl), 5 mM MgCl2, 0.005% Triton X-100, 23 °C
[11] = tested on: ML3-mut4 (DNA, aptamer, none) TTCAAATCTTATGTACGTTCTATCGCATGGATGGGATTATGGGTTACCTAGTCTAGATTTGAA; details: 0.5x PBS (about 68 mM NaCl, 1.4 mM KCl), 5 mM MgCl2, 0.005% Triton X-100, 23 °C
[12] = tested on: ML7 (DNA, aptamer, none) TTCAAATCTGGTGCCCTTTCGCAGTCGGTTGGTAATGAGATCACTTTAGAGTCTAGATTTGAA; details: 0.5x PBS (about 68 mM NaCl, 1.4 mM KCl), 5 mM MgCl2, 23 °C
[13] = tested on: ML3-mut1 (DNA, aptamer, none) TTCAAATCTTATGTAAGTTCTATCGCATGGATGGGATTTTGGGTTACCTAGTCTAGATTTGAA; details: 0.5x PBS (about 68 mM NaCl, 1.4 mM KCl), 5 mM MgCl2, 0.005% Triton X-100, 23 °C
[14] = tested on: Aptamer-2 (DNA, aptamer, none) AGGAATTCAGATCTCCCTGCAGGTGGTGTTTTTTTTGTGTGCTGTGTTTTTGTGATGCATGCTCGAGGAGCTCAGGATCCCG; details: 10 mM NaCl, 0.5 mM KCl, 0.2 mM MgCl2, 0.1 mM CaCl2; 2 mM Tris-HCl, 23 °C; very weak or no binding
[15] = tested on: ML3-mut2 (DNA, aptamer, none) TTCAAATCTTATGTACGTACTATCGCATGGATGGGATTTTGGGTTACCTAGTCTAGATTTGAA; details: 0.5x PBS (about 68 mM NaCl, 1.4 mM KCl), 5 mM MgCl2, 0.005% Triton X-100, 23 °C
[16] = tested on: ML4-mut6 (DNA, aptamer, none) TTCAAATCTTGGTACGTTCTGCCTTTTCTTATTTAGCTTTGGGTTACCTAGTCTAGATTTGAA; details: 0.5x PBS (about 68 mM NaCl, 1.4 mM KCl), 5 mM MgCl2, 0.005% Triton X-100, 23 °C
[17] = tested on: MT2-R4 (DNA, aptamer, none) GGGACGACGGCAATTGCCGGTGCAGGATCTGAATTATCGTCGTCCC; details: 137 mM NaCl, 2.7 mM KCl, 1 mM MgCl2; 1x PBS, 23 °C
[18] = tested on: ML4-mut1 (DNA, aptamer, none) TTCAAATCTTGGTACGTACTGCCTTTTCTTATTTTGCTTTGGGTTACCTAGTCTAGATTTGAA; details: 0.5x PBS (about 68 mM NaCl, 1.4 mM KCl), 5 mM MgCl2, 0.005% Triton X-100, 23 °C
[19] = tested on: ML3 (DNA, aptamer, none) TTCAAATCTTATGTACGTTCTATCGCATGGATGGGATTTTGGGTTACCTAGTCTAGATTTGAA; details: 0.5x PBS (about 68 mM NaCl, 1.4 mM KCl), 5 mM MgCl2; 0.5x PBS pH 7.4, 0.005% Triton X-100, 23 °C; 9.9 at 2 mM, 34.3 at 1 mM Mg2+
[20] = tested on: ML3-mut6 (DNA, aptamer, none) TTCAAATCTTATGTACGTTCTATCGCATGGATGGGATTTTGGGTTACCAAGTCTAGATTTGAA; details: 0.5x PBS (about 68 mM NaCl, 1.4 mM KCl), 5 mM MgCl2, 0.005% Triton X-100, 23 °C, table says NA, 2000 titrant, 50 aptamer
[21] = tested on: 84-nt aptaMETH (DNA, aptamer, none) ACTGGAGCTCAATCAGTACACGACGGTTGCAAGTGGGACTCTGGTAGGCTGGGTTAATTTGGGACAAGCTTCAACCATGGAGTA; details: 200 mM NaCl, 5 mM MgCl2; 20 mM Tris pH 7.4, 23 °C
[22] = tested on: ML10 (DNA, aptamer, none) TTCAAATCTGAGCAGCCTAGTTACTGACGGGTTTATAGTACTCACATTGAGTCTAGATTTGAA; details: 0.5x PBS (about 68 mM NaCl, 1.4 mM KCl), 5 mM MgCl2, 23 °C
[23] = tested on: M4 (DNA, aptamer, none) GGGACGACGCACTATGGCTAGGGTTGGTACGGTCGTGAACCGCGGGGTGTCGTCCC; details: 137 mM NaCl, 2.7 mM KCl, 1 mM MgCl2; 1x PBS, 23 °C
[24] = tested on: ML4-mut2 (DNA, aptamer, none) TTCAAATCTTGGTACGTTCTGCATTTTCTTATTTTGCTTTGGGTTACCTAGTCTAGATTTGAA; details: 0.5x PBS (about 68 mM NaCl, 1.4 mM KCl), 5 mM MgCl2, 0.005% Triton X-100, 23 °C
[25] = tested on: MT2-R3 (DNA, aptamer, none) GGGACGACGGTACCCGCCGGTGCAGGATCTGGGGTGGTGTCGTCCC; details: 137 mM NaCl, 2.7 mM KCl, 1 mM MgCl2; 1x PBS, 23 °C
[26] = tested on: ML11 (DNA, aptamer, none) TTCAAATCTGAGCAGCCTAGTTACTGACGGGTTTATAGTACTCGTATTGAGTCTAGATTTGAA; details: 0.5x PBS (about 68 mM NaCl, 1.4 mM KCl), 5 mM MgCl2, 23 °C
[27] = tested on: ML4-mut7 (DNA, aptamer, none) TTCAAATCTTGGTACGTTCTGCCTTTTCTTATTTTGCTATGGGTTACCTAGTCTAGATTTGAA; details: 0.5x PBS (about 68 mM NaCl, 1.4 mM KCl), 5 mM MgCl2, 0.005% Triton X-100, 23 °C
[28] = tested on: MT2-R2 (DNA, aptamer, none) GGGACGACGAGGGGATCCATCCAATGGGGTTTGTATACGTCGTCCC; details: 137 mM NaCl, 2.7 mM KCl, 1 mM MgCl2; 1x PBS, 23 °C

KD ([1]; 0.5x PBS, 23 °C): 255 ± 8 µM
SMILES: CNC(C)Cc1ccc(O)cc1 (stereo not shown)

KD [2]: 18.2 ± 0.5 µM
KD ([3]; double titration): 140 ± 3.9 µM
KD [4]: 5.7 ± 0.2 µM
KD ([1]; 0.5x PBS, 23 °C): 117 ± 4 µM
SMILES: CC(N)Cc1ccccc1 (stereo not shown)

KD [5]: 3.3 µM
KD [2]: 5.7 ± 0.3 µM
KD [3]: 7.0 ± 0.4 µM
KD [6]: 4.9 ± 0.2 µM
KD [7]: > 1 mM
KD [8]: 3.3 ± 0.1 µM
KD [4]: 2.5 ± 0.1 µM
KD [9]: 1.4 ± 0.1 µM
KD [10]: 3.2 ± 0.1 µM
KD [11]: 72.5 ± 3.1 µM
KD [12]: 1.30 ± 0.03 µM
KD [13]: 408 ± 16 µM
KD [14]: > 1 mM
KD [15]: 39.0 ± 1.8 µM
KD [16]: 3.8 ± 0.1 µM
KD [17]: 10.1 ± 0.7 µM
KD [18]: 67.1 ± 4.1 µM
KD [19]: 1.5 ± 0.1 µM
KD [20]: > 1 mM
KD [21]: 364 ± 28 µM
KD [22]: 1.9 ± 0.1 µM
KD [23]: 12 µM
KD [24]: 4.0 ± 0.1 µM
KD [25]: 18.0 ± 1.1 µM
KD [26]: 2.4 ± 0.1 µM
KD [27]: 64.3 ± 3.9 µM
KD [28]: 5.0 ± 0.1 µM
KD ([1]; 0.5x PBS pH 7.4, 0.005% Triton X-100, 23 °C, 16.2 at 2 mM, 65.2 at 1 mM Mg2+): 2.5 ± 0.1 µM
SMILES: CN[C@@H](C)Cc1ccccc1

KD [14]: > 1 mM
KD [21]: > 1000 µM
KD ([1]; 0.5x PBS, 23 °C): 450 ± 21 µM
SMILES: CN[C@H](C)Cc1ccccc1

The next lines start with the molecule.

SMILES: CN[C@@H](C)[C@@H](O)c1ccccc1
KD ([1]; 0.5x PBS, 23 °C): 372 ± 24 µM

SMILES: COC(=O)C(c1ccccc1)C1CCCCN1 (stereo not shown)
KD ([1]; 0.5x PBS, 23 °C): 749 ± 10 µM

SMILES: CNC(C)Cc1ccc2c(c1)OCO2 (stereo not shown)
KD ([1]; 0.5x PBS, 23 °C): 223 ± 8 µM

SMILES: CCCC(C(=O)c1ccc2c(c1)OCO2)N1CCCC1 (stereo not shown)
KD ([1]; 0.5x PBS, 23 °C): 344 ± 23 µM
